One series concerns the target T1, BCR-ABL1 T315I (Homo sapiens, UniProt P00519, T315I).
T1 construct: BCR (fusion partner, as the printed name BCR-ABL1 says)
As to the kind of experiment: KinaseProfiler radiometric kinase assay, BCR-ABL1 T315I. Type of series: biochemical. The conditions noted are these: [ATP] = 10 μM; mean of n = 2.

The nature of series [1]: Metabolic stability in rat liver microsomes. The series is classed as in vitro ADME. The conditions noted are these: rat liver microsomes. Here is the method: Metabolic Stability in Liver Microsomes (Independently Performed by Pharmaron Inc., Ninqbo, CN)
This experiment was carried out under two separate set of conditions: i) with Cofactors (NADPH), which consisted of adding 25 μL of 10 mM NADPH to the incubations, giving a final NADPH concentration of 1 mM, and ii) without Cofactors (NADPH), which consisted of adding 25 μL of 100 mM phosphate buffer to the incubations. Under both sets of conditions, the final concentration of microsomes were 0.5 mg/mL. […] Samples were then centrifuged at 3,220 g for 40 min and aliquots of 100 μL of the supernatant were mixed with 100 μL of ultra-pure H2O and analyzed by LC-MS/MS.
Peak areas were determined from extracted ion chromatograms. The slope value, k, was determined by linear regression of the natural logarithm of the remaining percentage of the parent drug vs incubation time curve.

Series [2] can be described thus: Metabolic stability in rat hepatocytes. Type of series: in vitro ADME. To be noted: rat hepatocytes. On the procedure:
(§1) All calculations were carried out using Microsoft Excel. Peak areas were determined from extracted ion chromatograms.

A short description of another series: MDCKII-MDR1 permeability. To be noted: dog, MDCK-MDR1, pH 7.4. Here is the method:
MDCKII-MDR1 Permeability (Independently Performed By: Pharmaron Inc., Ninqbo, CN)
To each well of the Transwell insert and reservoir were added 50 μL and 25 mL of cell culture medium, respectively.
To determine the rate of drug transport in the apical to basolateral direction, 125 μL of the working solution of either test compounds or control compounds was added to the Transwell insert (apical compartment) and a 50 μL sample was immediately transferred from the apical compartment to 200 μL of acetonitrile containing internal standard (100 nM alprazolam, 200 nM caffeine, and 100 nM tolbutamide) in a new 96-well plate as the initial donor sample (A-B). The sample was then vortexed at 1,000 rpm for 10 min. The receiver plate (basolateral compartment) wells were then filled with 235 μL transport buffer. To determine the rate of drug transport in the basolateral to apical direction, 285 μL of the working solution of either test compounds or control compounds was added to the receiver plate (basolateral compartment) wells and a 50 μL of sample was immediately transferred from the basolateral compartment to 200 μL of acetonitrile containing internal standard in a new 96-well plate as the initial donor sample (B-A). The sample was vortexed for 10 min at 1,000 rpm. The Transwell insert (apical compartment) was then filled with 75 μL of transport buffer and the apical to basolateral direction and the basolateral to apical direction were done at the same time. […] After incubation, 50 μL samples from donor sides (apical compartment for Ap→BI flux, and basolateral compartment BI→Ap) and receiver sides (basolateral compartment for Ap→BI flux, and apical compartment for BI→Ap) were transferred to wells of a new 96-well plate, followed by the addition of 200 μL acetonitrile containing internal standard. […] An aliquot of 100 μL of the supernatant was mixed with an appropriate volume of ultra-pure water before LC-MS/MS analysis.
To monitor for monolayer integrity, Lucifer yellow leakage was determined after the 2 h transport period. This began by preparing a stock solution of Lucifer yellow in DMSO and diluted with HBSS (10 mM HEPES, pH 7.4.) to reach a final concentration of 100 μM. To each Transwell insert (apical compartment) was then added 100 μL of the Lucifer yellow solution, followed by filling the wells in the receiver plate (basolateral compartment) with 300 μL of HBSS (10 mM HEPES, pH 7.4).
The efflux ratio was determined using the following equation: […]

Series [3] is described as follows: Metabolic stability in mouse hepatocytes. To be noted: read-out: Remaining Percentages. The series is classed as in vitro ADME. On the procedure: as §1

The structures appear in SMILES notation. Read-outs that look alike come from different tables or passages of the source.

The compound `COc1cc(Nc2c(C#N)cnc3cc(OCCON4CCN(C)CC4)c(OC)cc23)c(F)cc1Cl` [Compound 15, 4-((4-chloro-2-fluoro-5-methoxyphenyl)amino)-6-methoxy-7-(2-((4-methylpiperazin-1-yl)oxy)ethoxy)quinoline-3-carbonitrile] came in with a half-maximal inhibitory concentration (IC50) against BCR-ABL1 T315I of 166 nM. In addition, in series [1], the half-life at 1 µM amounted to 4.9 min. Also, the microsomal CLint at 1 µM in series [1] (read-out: LMCIint (rate of metabolism)) amounted to 286 µL/min/mg. The half-life in series [2] was determined as 12.3 min. Further, the hepatocyte CLint in series [2] (read-out: HEPCIint (rate of metabolism)) stood at 113 µL/min/1e6 cells. Moreover, in “MDCKII-MDR1 permeability”, the Papp A→B at 2 h, 1 µM was 0.7 ×10⁻⁶ cm/s; the Papp B→A at 2 h, 1 µM came out at 19.3 ×10⁻⁶ cm/s; the efflux ratio at 1 µM is 26.5.
Turning to `COc1cc(Cl)ccc1Nc1c(C#N)cnc2cc(OCCON3CCN(C)CC3)c(OC)cc12` [Compound 20, 4-((4-Chloro-2-methoxyphenyl)amino)-6-methoxy-7-(2-((4-methylpiperazin-1-yl)oxy)ethoxy)quinoline-3-carbonitrile], the fraction remaining at 0.5 min in series [3] (0.5 min) worked out at 100%. In addition, the fraction remaining at […] is 55.5% in series [3] (15 min) and 6.75% in series [3] (90 min, BLOD = below level of detection). Also, the fraction remaining at 0.5 h in series [3] (30 min) was 28.6%. In addition, the fraction remaining at 1 h in series [3] (60 min) amounted to 13.3%. In addition, in series [3] (120 min, BLOD = below level of detection), the amount remaining at 2 h is 2.89%.

The values are drawn from patent US20260297031A1, “HYDROXYLAMINE-BASED BCR-ABL1 INHIBITORS FOR TREATMENT OF CANCER” (University of Georgia Research Foundation, Inc., priority 2023, published 2026).
